Experimental data taken from patent US20220324835A1 (Nurix Therapeutics, Inc., priority 2018, published 2022).

Assays:
Cbl-b [1] = target: T1, Cbl-b (Homo sapiens, UniProt Q13191); assay: Cbl-b inhibition assay (Cbl-b activity assay, FRET, Biological Example 1; 100 mM NaCl, 60 nM Src kinase); format: biochemical; conditions: upper bound stated in text lists; read-out: IC50 values in the Cbl-b inhibition assay of Biological Example 1
How it was run: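 Binding-based Cbl-b activity assay. Src-phosphorylated, N-terminally biotin-Avi-tagged Cbl-b recruits labelled UbcH5B-Ub, and proximity to streptavidin-terbium yields FRET.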

T-cell [2] = assay: IL-2 secretion from T-cells co-stimulated with anti-CD3 and anti-CD28 antibody (Biological Example 2); format: cell-based, human; conditions: Homo sapiens, T-cell, fold change over baseline, primary human total T-cells, read-out: IL-2 secretion Anti-CD3/Anti-CD28 stimulation; for fold induction at 0.3 µM: 0.3 μM Cbl-b inhibitor; for fold induction at 1 µM: 1 μM Cbl-b inhibitor; for fold induction at 4 µM: 4 μM Cbl-b inhibitor
Text: (§1) Methods for experimentally determining increased T-cell activation, increased T-cell proliferation, decreased T-cell exhaustion, and/or decreased T-cell tolerance are well known in the art.
(§2) Modulation of activity of an immune cell, such as a T-cell, a B cell or a NK cell can be measured by determining a baseline value for a parameter of interest (e.g., cytokine secretion). […] A reference value then is obtained for T-cell activation after contacting or administering said Cbl-b inhibitor. The reference value is compared to the baseline value in order to determine the amount of T-cell activation due to contact or administration of the Cbl-b inhibitor or composition thereof. […] Immune cell activation can be assessed by measuring biological markers of activation such as increased cytokine secretion, increased cell surface expression of activation markers (e.g., cell surface markers), or increased phosphorylation of proteins in a downstream signaling pathway. The fold over baseline value that indicates immune cell activation can be determined for the parameter being tested and the conditions under which the immune cell were treated. For example, for measuring T-cell activation, a baseline value can be obtained from T-cells stimulated with anti-CD3 antibody in combination with anti-CD28 antibody, wherein the cells are not incubated with a Cbl-b inhibitor. […] A positive response for immune cell activation can then be determined by the obtained reference value. […]

T-cell [3] = assay: IL-2 secretion from T-cells stimulated with anti-CD3 antibody alone (Biological Example 2); format: cell-based, human; conditions: T-cell, fold change over baseline, primary human total T-cells, read-out: IL-2 secretion Anti-CD3 stimulation; for fold induction at 1 µM: 1 μM Cbl-b inhibitor; for fold induction at 8 µM: 8 μM Cbl-b inhibitor
Text: as §1
(§3) Modulation of activity of an immune cell, such as a T-cell, a B cell or a NK cell can be measured by determining a baseline value for a parameter of interest (e.g., cytokine secretion). […] A reference value then is obtained for T-cell activation after contacting or administering said Cbl-b inhibitor. The reference value is compared to the baseline value in order to determine the amount of T-cell activation due to contact or administration of the Cbl-b inhibitor or composition thereof. […] Immune cell activation can be assessed by measuring biological markers of activation such as increased cytokine secretion, increased cell surface expression of activation markers (e.g., cell surface markers), or increased phosphorylation of proteins in a downstream signaling pathway. The fold over baseline value that indicates immune cell activation can be determined for the parameter being tested and the conditions under which the immune cell were treated. For example, for measuring T-cell activation, a baseline value can be obtained from T-cells stimulated with anti-CD3 antibody in combination with anti-CD28 antibody, wherein the cells are not incubated with a Cbl-b inhibitor. […] A positive response for immune cell activation can then be determined by the obtained reference value.
(§4) In some embodiments, a baseline value can be obtained from T-cells stimulated with anti-CD3 antibody alone, wherein the cells are not incubated with a Cbl-b inhibitor. In some embodiments, a positive response for T-cell activation as measured by cytokine secretion (e.g., IL-2 secretion) by T-cells stimulated with anti-CD3 antibody alone in the presence of a Cbl-b inhibitor is at least 0.1-fold over the baseline value for cytokine secretion (e.g., IL-2 secretion) obtained from T-cells stimulated with anti-CD3 antibody alone in the absence of a Cbl-b inhibitor. In some embodiments, a positive response for T-cell activation as measured by surface marker expression (e.g., CD25 surface marker staining) by T-cells stimulated with anti-CD3 antibody alone in the presence of a Cbl-b inhibitor is at least 0.6-fold over the baseline value for surface marker expression (e.g., CD25 surface marker staining) obtained from T-cells stimulated with anti-CD3 antibody alone in the absence of a Cbl-b inhibitor.

T-cell [4] = assay: CD25 cell surface staining on T-cells co-stimulated with anti-CD3 and anti-CD28 antibody (Biological Example 2); format: cell-based, human; conditions: Homo sapiens, T-cell, fold change over baseline, primary human total T-cells, read-out: CD25 staining Anti-CD3/Anti-CD28 stimulation; for fold induction at 0.3 µM: 0.3 μM Cbl-b inhibitor; for fold induction at 1 µM: 1 μM Cbl-b inhibitor; for fold induction at 4 µM: 4 μM Cbl-b inhibitor
Text: as §1, §2

T-cell [5] = assay: CD25 cell surface staining on T-cells stimulated with anti-CD3 antibody alone (Biological Example 2); format: cell-based, human; conditions: T-cell, fold change over baseline, primary human total T-cells, read-out: CD25 staining Anti-CD3 stimulation; for fold induction at 1 µM: 1 μM Cbl-b inhibitor; for fold induction at 8 µM: 8 μM Cbl-b inhibitor
Text: as §1, §3, §4

Cbl-b [6] = target: T1, Cbl-b; assay: Cbl-b activity assay (Cbl-b inhibition assay), TR-FRET of Cbl-b interaction with UbcH5B-Ub; format: biochemical; conditions: assay buffer with 100 mM NaCl, 60 nM Src kinase; read-out: Cbl-b activity IC50
How it was run: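 Compound-treated Cbl-b was incubated 1.5 h with Src kinase (60 nM final; 30 nM for asterisked values, which also used 50 mM instead of 100 mM NaCl), 1 mM ATP and 5 mM MgCl2. Binding to fluorescent Ub-loaded UbcH5B (C85K mutant) was then read by TR-FRET after 1 h more.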

T1 sequence (Q13191 36-427): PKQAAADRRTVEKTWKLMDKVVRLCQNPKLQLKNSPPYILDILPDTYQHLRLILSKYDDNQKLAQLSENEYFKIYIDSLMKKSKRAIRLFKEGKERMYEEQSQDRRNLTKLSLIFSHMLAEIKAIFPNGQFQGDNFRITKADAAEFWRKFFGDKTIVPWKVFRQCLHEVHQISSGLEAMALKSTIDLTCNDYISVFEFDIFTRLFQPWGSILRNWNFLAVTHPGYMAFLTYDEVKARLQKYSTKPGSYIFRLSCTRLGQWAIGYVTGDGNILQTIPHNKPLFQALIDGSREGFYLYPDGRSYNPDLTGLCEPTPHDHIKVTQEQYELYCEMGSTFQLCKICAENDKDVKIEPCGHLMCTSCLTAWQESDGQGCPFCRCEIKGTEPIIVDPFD

Row | SMILES | IC50 (Cbl-b [1]) | fold induction at 0.3 µM (T-cell [2]) | fold induction at 1 µM (T-cell [2]) | fold induction at 4 µM (T-cell [2]) | fold induction at 1 µM (T-cell [3]) | fold induction at 8 µM (T-cell [3]) | fold induction at 0.3 µM (T-cell [4]) | fold induction at 1 µM (T-cell [4]) | fold induction at 4 µM (T-cell [4]) | fold induction at 1 µM (T-cell [5]) | fold induction at 8 µM (T-cell [5]) | IC50 (Cbl-b [6])
1 | CC(Sc1nncn1C)c1cccc(NC(=O)c2ccc3ccccc3n2)c1 (stereo not shown) [Compound 9, N-(3-(1-((4-Methyl-4H-1,2,4-triazol-3-yl)thio)ethyl)phenyl)quinoline-2-carboxamide] | ≤ 1000 nM | 1.01 to 2.5 | 1.01 to 2.5 | 2.51 to 5 | < 0.05 | 0.051 to 0.1 | < 1 | < 1 | 1.01 to 1.3 | < 0.6 | 0.601 to 0.8 | –
2 | C[C@H](Cc1nncn1C)c1cccc(NC(=O)c2cc3cccn3cn2)c1 [Compound 317, (R)-N-(3-(1-(4-Methyl-4H-1,2,4-triazol-3-yl)propan-2-yl)phenyl)pyrrolo[1,2-c]pyrimidine-3-carboxamide] | – | 1.01 to 2.5 | 1.01 to 2.5 | 1.01 to 2.5 | 0.051 to 0.1 | 0.101 to 0.15 | 1.01 to 1.3 | 1.01 to 1.3 | 1.01 to 1.3 | 0.601 to 0.8 | 0.801 to 1 | 301 to 1000 nM
3 | C[C@H](Cc1nncn1C)c1cccc(NC(=O)c2cn3ccnc3cn2)c1 [Compound 318, (R)-N-(3-(1-(4-Methyl-4H-1,2,4-triazol-3-yl)propan-2-yl)phenyl)imidazo[1,2-a]pyrazine-6-carboxamide] | – | 1.01 to 2.5 | 1.01 to 2.5 | 1.01 to 2.5 | 0.051 to 0.1 | 0.101 to 0.15 | < 1 | 1.01 to 1.3 | 1.01 to 1.3 | 0.601 to 0.8 | 0.801 to 1 | 301 to 1000 nM
4 | C[C@@H](Cc1nncn1C)c1cccc(NC(=O)c2cc(C3CC3)cc(C(F)(F)F)n2)c1 [Compound 322, (S)-4-Cyclopropyl-N-(3-(1-(4-methyl-4H-1,2,4-triazol-3-yl)propan-2-yl)phenyl)-6-(trifluoromethyl)picolinamide] | – | 1.01 to 2.5 | 1.01 to 2.5 | 1.01 to 2.5 | 0.051 to 0.1 | 0.101 to 0.15 | 1.01 to 1.3 | 1.01 to 1.3 | 1.01 to 1.3 | 0.601 to 0.8 | 0.601 to 0.8 | 301 to 1000 nM
5 | C[C@H](Cc1nncn1C)c1cccc(NC(=O)c2cnn3cccnc23)c1 [Compound 324, (R)-N-(3-(1-(4-Methyl-4H-1,2,4-triazol-3-yl)propan-2-yl)phenyl)pyrazolo[1,5-a]pyrimidine-3-carboxamide] | – | 1.01 to 2.5 | 1.01 to 2.5 | 1.01 to 2.5 | 0.051 to 0.1 | 0.051 to 0.1 | < 1 | < 1 | 1.01 to 1.3 | 0.601 to 0.8 | 0.601 to 0.8 | 301 to 1000 nM
6 | C[C@H](Cc1nncn1C)c1cc(NC2COC2)cc(N2Cc3c(cccc3C(F)(F)F)C2=O)c1 [Compound 350, 2-{3-[(2R)-1-(4-methyl-4H-1,2,4-triazol-3-yl)propan-2-yl]-5-[(oxetan-3-yl)amino]phenyl}-4-(trifluoromethyl)-2,3-dihydro-1H-isoindol-1-one] | – | < 1 | 1.01 to 2.5 | 1.01 to 2.5 | 0.051 to 0.1 | 0.051 to 0.1 | 1.01 to 1.3 | 1.01 to 1.3 | 1.01 to 1.3 | 0.601 to 0.8 | 0.801 to 1 | 301 to 1000 nM
7 | CC1OCC1Oc1cc([C@H](C)Cc2nncn2C)cc(N2Cc3c(cccc3C(F)(F)F)C2=O)n1 (stereo partly drawn) [Compound 355, 2-(4-((R)-1-(4-methyl-4H-1,2,4-triazol-3-yl)propan-2-yl)-6-((2-methyloxetan-3-yl)oxy)pyridin-2-yl)-4-(trifluoromethyl)isoindolin-1-one] | – | 1.01 to 2.5 | 1.01 to 2.5 | 1.01 to 2.5 | 0.051 to 0.1 | 0.101 to 0.15 | 1.01 to 1.3 | 1.01 to 1.3 | 1.01 to 1.3 | 0.601 to 0.8 | 0.601 to 0.8 | 301 to 1000 nM
8 | C[C@H](Cc1nncn1C)c1cc(OCCO)nc(N2Cc3c(cccc3C(F)(F)F)C2=O)c1 [Compound 359, (R)-2-(6-(2-hydroxyethoxy)-4-(1-(4-methyl-4H-1,2,4-triazol-3-yl)propan-2-yl)pyridin-2-yl)-4-(trifluoromethyl)isoindolin-1-one] | – | 1.01 to 2.5 | 1.01 to 2.5 | 2.51 to 5 | 0.051 to 0.1 | > 0.201 | 1.01 to 1.3 | 1.01 to 1.3 | 1.31 to 1.5 | 0.601 to 0.8 | > 1 | 301 to 1000 nM
